What follows are compounds tested against T1, human NPY Y5 receptor (Homo sapiens (Human), UniProt Q15761) (assay: Inhibitory effect on cAMP production in CHO cells). Conditions: CHO cells expressing human NPY Y5 receptor, 50 nM NPY, 10 μM forskolin; read-out: 50% inhibitory concentration (IC50 value) against the NPY activity on forskolin stimulated cAMP production.
Format: cell-based
Procedure: CHO cells expressing human NPY Y5 receptor were incubated in the presence of 2.5 mM isobutylmethylxanthine (SIGMA) at 37° C. for 20 min. After the incubation the compound of the present invention was added, and then the mixture was incubated for 5 min. Next, 50 nM NPY and 10 μM forskolin (SIGMA) were added, and the mixture was incubated for 30 min. After termination of the reaction by adding 1N HCl, the amount of cAMP in the supernatant was determined with an EIA kit (Amersham LIFE SCIENCE). The inhibitory activity of NPY against forskolin stimulated cAMP production was expressed as 100% and the 50% inhibitory concentration (IC50 value) of the compound of the present invention against the NPY activity was calculated.

T1 sequence (Q15761 whole entry): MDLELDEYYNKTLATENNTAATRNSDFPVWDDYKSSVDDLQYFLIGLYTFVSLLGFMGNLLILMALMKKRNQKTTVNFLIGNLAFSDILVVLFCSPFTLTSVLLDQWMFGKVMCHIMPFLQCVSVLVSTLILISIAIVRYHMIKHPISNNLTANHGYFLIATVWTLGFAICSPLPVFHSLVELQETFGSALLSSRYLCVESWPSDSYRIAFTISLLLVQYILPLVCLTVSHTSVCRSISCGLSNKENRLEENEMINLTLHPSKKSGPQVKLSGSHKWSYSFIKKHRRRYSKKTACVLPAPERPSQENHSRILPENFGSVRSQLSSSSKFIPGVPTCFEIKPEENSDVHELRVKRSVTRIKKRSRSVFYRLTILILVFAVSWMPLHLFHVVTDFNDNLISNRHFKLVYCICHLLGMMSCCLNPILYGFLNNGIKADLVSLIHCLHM

IC50	Structure (SMILES)
3.3 nM	CCS(=O)(=O)NC[C@H]1CC[C@H](Nc2nc(-c3cccc(F)c3)no2)CC1 [Compound I-017]
2.1 nM	CC(C)S(=O)(=O)NC[C@H]1CC[C@H](Nc2nc(-c3cccc(F)c3)no2)CC1 [Compound I-018]
1.3 nM	CCS(=O)(=O)NC[C@H]1CC[C@H](Nc2nc(-c3ccc(F)c(F)c3)no2)CC1 [Compound I-029]

These compounds were tested against mouse NPY Y5 receptor (Mus musculus (Mouse), UniProt O70342) (assay: Affinity for mouse NPY Y5 receptor ([125I] peptide YY binding, CHO cell membranes)). Conditions: membranes from CHO cells expressing mouse NPY Y5 receptor, [125I] peptide YY 60 pM, 25° C., 2 hours; read-out: 50% inhibitory concentration against the specific peptide YY binding (IC50 value).
mouse NPY Y5 receptor, sequence (O70342 whole entry): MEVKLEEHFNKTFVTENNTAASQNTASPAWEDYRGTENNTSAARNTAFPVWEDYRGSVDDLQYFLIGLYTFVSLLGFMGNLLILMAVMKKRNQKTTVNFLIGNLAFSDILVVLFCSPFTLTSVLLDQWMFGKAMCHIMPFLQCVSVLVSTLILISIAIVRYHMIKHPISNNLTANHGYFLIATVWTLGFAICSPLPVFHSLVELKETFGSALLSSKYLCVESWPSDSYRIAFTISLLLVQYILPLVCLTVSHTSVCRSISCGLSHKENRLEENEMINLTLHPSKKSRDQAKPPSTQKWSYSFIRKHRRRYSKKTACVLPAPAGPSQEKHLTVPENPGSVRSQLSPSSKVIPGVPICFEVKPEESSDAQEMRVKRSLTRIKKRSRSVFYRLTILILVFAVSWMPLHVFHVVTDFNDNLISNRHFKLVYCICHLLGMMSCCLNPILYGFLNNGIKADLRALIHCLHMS
Description: cDNA sequence encoding a mouse NPY Y5 receptor (Biochim. Biophys. Acta 1328:83-89, 1997) was cloned in a vector (pME18S, Takebe et al. Mol. Cell. Biol. 8, 8957). The obtained expression vector was transfected into CHO cells as a host by using Lipofect AMINE reagent (Trademark, Gico BRL Co., Ltd.) according to the instruction manual. The cells that stably express NPY Y5 receptor were obtained.
(§1) The membranes prepared from the CHO cells expressing NPY Y5 receptor, the compound of this invention and 30,000 cpm [^125I] peptide YY (60 pM of final concentration: Healthcare) were incubated in the assay buffer (20 mM HEPES-Hanks buffer containing 0.1% bovine serum albumin, pH 7.4) at 25° C. for 2 hours, and then the membrane was filtered from the mixture through a glass filter (GF/C) presoaked with 1% polyethyleneimine. After washing with 50 mM Tris-HCl buffer (pH 7.4), radioactivity retained on the filters was quantified with a gamma counter. Nonspecific binding was defined as the amount of radioactivity bound to the membranes after incubation in the presence of 200 nM of peptide YY. The 50% inhibitory concentration of the test compound against the specific peptide YY binding (IC50 value) was calculated (Inui, A. et al. Endocrinology 131, 2090-2096 (1992)).

Structure (SMILES)	IC50
CC1(c2noc(N[C@H]3CC[C@H](CNS(=O)(=O)C(C)(C)C)CC3)n2)CC(F)(F)C1 [Compound I-143]	0.8 nM
CC(C)S(=O)(=O)NC[C@H]1CC[C@H](Nc2nc(C(F)(F)F)co2)CC1 [Compound I-150]	3.6 nM
CCS(=O)(=O)NC[C@H]1CC[C@H](Nc2nc(C3(F)CCCC3)no2)CC1 [Compound I-138]	0.5 nM
CC(C)S(=O)(=O)NC[C@H]1CC[C@H](Nc2nc(-c3ccc(F)cn3)no2)CC1 [Compound I-099]	0.8 nM
CC(C)(C)S(=O)(=O)NC[C@H]1CC[C@H](Nc2nc(C(F)(F)C(F)(F)F)no2)CC1 [Compound I-149]	1.04 nM
CC(C)(C)S(=O)(=O)NC[C@H]1CC[C@H](Nc2nc(C(F)(F)F)co2)CC1 [Compound I-146]	4.21 nM
CC(C)(C)S(=O)(=O)NC[C@H]1CC[C@H](Nc2nc(-c3ccc(F)cn3)no2)CC1 [Compound I-100]	0.9 nM
CC(C)S(=O)(=O)NC[C@H]1CC[C@H](Nc2nc(C(F)(F)C(F)(F)F)no2)CC1 [Compound I-152]	0.65 nM
CC(C)(C)S(=O)(=O)NC[C@H]1CC[C@H](Nc2nc(C(F)(F)F)no2)CC1 [Compound I-136]	1.5 nM
CCS(=O)(=O)NC[C@H]1CC[C@H](Nc2nc(C(F)(F)C(F)(F)F)no2)CC1 [Compound I-153]	1.67 nM
CC(C)S(=O)(=O)NC[C@H]1CC[C@H](Nc2nc(C3(C)CC(F)(F)C3)no2)CC1 [Compound I-147]	0.61 nM
CC(C)(C)S(=O)(=O)NC[C@H]1CC[C@H](Nc2nc(C3(F)CC(F)(F)C3)no2)CC1 [Compound I-161]	1.9 nM
CC(C)S(=O)(=O)NC[C@H]1CC[C@H](Nc2nc(C(F)(F)F)no2)CC1 [Compound I-145]	3.1 nM

Further lines, results first:

IC50	Structure (SMILES)
0.22 nM	CCS(=O)(=O)NC[C@H]1CC[C@H](Nc2nc(-c3cccc(F)c3)no2)CC1 [Compound I-017]
0.32 nM	CCS(=O)(=O)NC[C@H]1CC[C@H](Nc2nc(-c3ccc(F)cc3)no2)CC1 [Compound I-006]
0.2 nM	CC(C)S(=O)(=O)NC[C@H]1CC[C@H](Nc2nc(-c3cccc(F)c3)no2)CC1 [Compound I-018]
0.13 nM	CC(C)S(=O)(=O)NC[C@H]1CC[C@H](Nc2nc(-c3ccccc3)no2)CC1 [Compound I-024]
0.23 nM	CCS(=O)(=O)NC[C@H]1CC[C@H](Nc2nc(-c3cc(F)cc(F)c3)no2)CC1 [Compound I-053]
0.34 nM	CCS(=O)(=O)NC[C@H]1CC[C@H](Nc2nc(-c3ccccc3)no2)CC1 [Compound I-011]
0.22 nM	CCS(=O)(=O)NC[C@H]1CC[C@H](Nc2nc(-c3ccc(F)c(F)c3)no2)CC1 [Compound I-029]
1.4 nM	CS(=O)(=O)NC[C@H]1CC[C@H](Nc2nc(-c3ccc(F)cc3)no2)CC1 [Compound I-023]
0.86 nM	CS(=O)(=O)NC[C@H]1CC[C@H](Nc2nc(-c3cccc(F)c3)no2)CC1 [Compound I-027]
0.9 nM	CS(=O)(=O)NC[C@H]1CC[C@H](Nc2nc(-c3cccc(Cl)c3)no2)CC1 [Compound I-081]
0.7 nM	CC(C)(c1ccccc1)c1noc(N[C@H]2CC[C@H](CNS(=O)(=O)C(C)(C)C)CC2)n1 [Compound I-130]
0.18 nM	CCS(=O)(=O)NC[C@H]1CC[C@H](Nc2nc(-c3ccc(F)cc3F)no2)CC1 [Compound I-034]

The compounds below were run against T1, human NPY Y5 receptor (assay: Affinity for human NPY Y5 receptor ([125I] peptide YY binding, CHO cell membranes)). Conditions: membranes from CHO cells expressing human NPY Y5 receptor, [125I] peptide YY 60 pM, 25° C., 2 hours; read-out: 50% inhibitory concentration against the specific peptide YY binding (IC50 value).
Description: cDNA sequence encoding a human NPY Y5 receptor (WO96/16542) was cloned in a vector (pME18S, Takebe et al. Mol. Cell. Biol. 8, 466-472). The obtained expression vector was transfected into CHO cells as a host by using Lipofect AMINE reagent (Trademark, Inbitrogen) according to the instruction manual. The cells that stably express human NPY Y5 receptor were obtained.
as §1, with “expressing human” for “expressing”, “[…]” for “[^125I]”, “glassfilter” for “glass filter”

IC50	Structure (SMILES)
0.81 nM	CCS(=O)(=O)NC[C@H]1CC[C@H](Nc2nc(-c3cccc(F)c3)no2)CC1 [Compound I-017]
0.86 nM	CCS(=O)(=O)NC[C@H]1CC[C@H](Nc2nc(-c3ccc(F)c(F)c3)no2)CC1 [Compound I-029]

Reference: patent publication US8916594B2, “5-membered ring heteroaromatic derivatives having NPY Y5 receptor antagonistic activity” (Shionogi & Co., Ltd., priority 2011, dated 2014)
